Values after ≈ are worked out from the molar mass of the structure shown. Square brackets hold non-standard residues; d marks the D form. Peptide text beside a SMILES is read from it. Dab = NCC[C@H](N)C(=O)O
How the values were obtained:
C. krusei = assay: MIC by CLSI M27/M38 methodology; type: cell-based; conditions: C. krusei isolate ATCC 6258; Table 8
P. variotii = assay: MIC by CLSI M27/M38 methodology; type: cell-based; conditions: P. variotii isolate MYA-363; Table 8

Row | SMILES | MIC, 100% (C. krusei) [µg/mL] | MIC, 100% (P. variotii) [µg/mL]
1 | CC[C@H](C)[C@H](NC(=O)[C@H](CCCNC(=N)N)NC(=O)[C@@H](NC(=O)[C@H](CS)NC(=O)[C@H](Cc1ccccc1)NC(=O)[C@H](CS)NC(=O)[C@H](CCCNC(=N)N)NC(=O)[C@H](CCCNC(=N)N)NC(=O)[C@H](CCCNC(=N)N)NC(=O)[C@H](Cc1ccccc1)NC(=O)CNC(=O)[C@H](CCCNC(=N)N)NC(=O)[C@H](CS)NC(=O)[C@H](CCCNC(=N)N)NC(=O)CNC(=O)CN)[C@@H](C)O)C(=O)N[C@@H](CS)C(N)=O [GMA4C_V2A] (H-GGRCRGFRRRCFCTRIC-NH2; N-terminus assumed) | 16 (≈ 7.82 µM) | 8 (≈ 3.91 µM)
2 | N=C(N)NCCC[C@H](NC(=O)CNC(=O)[C@@H](N)Cc1ccccc1)C(=O)N[C@@H](CS)C(=O)N[C@@H](CCCNC(=N)N)C(=O)NCC(=O)N[C@@H](Cc1ccccc1)C(=O)N[C@@H](CCCNC(=N)N)C(=O)N[C@@H](CCCNC(=N)N)C(=O)N[C@@H](CCCNC(=N)N)C(=O)N[C@@H](CS)C(=O)N[C@@H](Cc1ccccc1)C(=O)N[C@@H](CS)C(=O)N[C@@H](Cc1c[nH]c2ccccc12)C(=O)N[C@@H](CCCNC(=N)N)C(=O)N[C@@H](Cc1c[nH]c2ccccc12)C(=O)N[C@@H](CS)C(N)=O [GMA4C_V4A] (H-FGRCRGFRRRCFCWRWC-NH2; N-terminus assumed) | 8 (≈ 3.49 µM) | 8 (≈ 3.49 µM)
3 | NCC[C@H](NC(=O)CNC(=O)[C@@H](N)Cc1ccccc1)C(=O)N[C@@H](CS)C(=O)N[C@@H](CCN)C(=O)NCC(=O)N[C@@H](Cc1ccccc1)C(=O)N[C@@H](CCN)C(=O)N[C@@H](CCN)C(=O)N[C@@H](CCN)C(=O)N[C@@H](CS)C(=O)N[C@@H](Cc1ccccc1)C(=O)N[C@@H](CS)C(=O)N[C@@H](Cc1c[nH]c2ccccc12)C(=O)N[C@@H](CCN)C(=O)N[C@@H](Cc1c[nH]c2ccccc12)C(=O)N[C@@H](CS)C(N)=O [GMA4C_V5A, FG(Dab)C(Dab)GF(Dab)(Dab)(Dab)CFCW(Dab)WC-NH2] (H-FG[Dab]C[Dab]GF[Dab][Dab][Dab]CFCW[Dab]WC-NH2; N-terminus assumed) | 8 (≈ 4.08 µM) | 4 (≈ 2.04 µM)

From US20240383955A1, “MODIFIED ANTIMICROBIAL PEPTIDES” (priority 2021, published 2024)
